Test results as given in US20250090875A9, “IMMUNOSTIMULATORY COMPOUNDS AND CONJUGATES” (Seagen Inc., priority 2021, published 2025).
pEC50: −log10 of the molar value.

What was measured:
[1] = target: T1, hTLR8 (Homo sapiens, UniProt Q9NR97); experiment: HEK Blue hTLR8 cell assay of free TLR7/8 agonists; format: cell-based; conditions: HEK Blue hTLR8 cells, free agonist
T1 construct: expressed in transfected cells; host or cells: HEK Blue hTLR8 cells
T1 sequence (Q9NR97 27-1041): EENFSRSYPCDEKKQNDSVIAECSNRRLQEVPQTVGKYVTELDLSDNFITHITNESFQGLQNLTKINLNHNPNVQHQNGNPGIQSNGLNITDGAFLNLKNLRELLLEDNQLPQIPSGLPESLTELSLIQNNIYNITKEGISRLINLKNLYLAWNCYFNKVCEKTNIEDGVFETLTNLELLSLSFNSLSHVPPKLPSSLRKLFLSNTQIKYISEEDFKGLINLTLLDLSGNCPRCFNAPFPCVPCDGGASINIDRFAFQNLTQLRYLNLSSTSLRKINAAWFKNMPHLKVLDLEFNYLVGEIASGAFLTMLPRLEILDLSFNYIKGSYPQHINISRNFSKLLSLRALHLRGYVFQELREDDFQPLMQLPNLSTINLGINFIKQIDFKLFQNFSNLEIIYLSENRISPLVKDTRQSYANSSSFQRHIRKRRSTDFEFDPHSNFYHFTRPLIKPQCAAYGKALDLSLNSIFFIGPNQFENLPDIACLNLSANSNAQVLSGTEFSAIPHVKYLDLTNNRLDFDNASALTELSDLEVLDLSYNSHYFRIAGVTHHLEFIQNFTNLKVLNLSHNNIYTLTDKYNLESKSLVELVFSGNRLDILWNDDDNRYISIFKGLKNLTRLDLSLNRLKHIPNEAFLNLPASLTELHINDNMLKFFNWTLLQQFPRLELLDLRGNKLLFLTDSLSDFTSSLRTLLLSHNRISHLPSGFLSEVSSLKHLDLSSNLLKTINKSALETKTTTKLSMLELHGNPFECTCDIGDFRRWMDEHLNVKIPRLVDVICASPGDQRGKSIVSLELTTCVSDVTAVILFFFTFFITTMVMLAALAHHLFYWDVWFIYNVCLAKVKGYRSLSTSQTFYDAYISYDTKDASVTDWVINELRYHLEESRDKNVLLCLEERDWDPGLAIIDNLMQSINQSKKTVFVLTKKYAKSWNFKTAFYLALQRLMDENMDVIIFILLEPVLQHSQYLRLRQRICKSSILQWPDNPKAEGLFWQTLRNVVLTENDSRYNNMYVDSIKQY
Description: (§1) This example covers toll-like receptor 7 (TLR7) and toll-like receptor 8 (TLR8) selectivity of imidazoquinoline agonists. Assessment of TLR7 and TLR8 selectivity for the free TLR7/8 agonists was performed using HEK Blue hTLR7 and hTLR8 cells over a large dose range of compounds. […] Activities were determined based on calculated EC50 (in μM) in each cell line, and are summarized in TABLE 4 below, with columns providing targets and rows providing compounds.

[2] = target: T2, hTLR7 (Homo sapiens, UniProt Q9NYK1); experiment: HEK Blue hTLR7 cell assay of free TLR7/8 agonists; format: cell-based; conditions: for pEC50: HEK Blue hTLR7 cells, free agonist; for TLR7/TLR8: ratio of EC50 hTLR7 to EC50 hTLR8
T2 construct: expressed in transfected cells; host or cells: HEK Blue hTLR7 cells
T2 sequence (Q9NYK1 27-1049): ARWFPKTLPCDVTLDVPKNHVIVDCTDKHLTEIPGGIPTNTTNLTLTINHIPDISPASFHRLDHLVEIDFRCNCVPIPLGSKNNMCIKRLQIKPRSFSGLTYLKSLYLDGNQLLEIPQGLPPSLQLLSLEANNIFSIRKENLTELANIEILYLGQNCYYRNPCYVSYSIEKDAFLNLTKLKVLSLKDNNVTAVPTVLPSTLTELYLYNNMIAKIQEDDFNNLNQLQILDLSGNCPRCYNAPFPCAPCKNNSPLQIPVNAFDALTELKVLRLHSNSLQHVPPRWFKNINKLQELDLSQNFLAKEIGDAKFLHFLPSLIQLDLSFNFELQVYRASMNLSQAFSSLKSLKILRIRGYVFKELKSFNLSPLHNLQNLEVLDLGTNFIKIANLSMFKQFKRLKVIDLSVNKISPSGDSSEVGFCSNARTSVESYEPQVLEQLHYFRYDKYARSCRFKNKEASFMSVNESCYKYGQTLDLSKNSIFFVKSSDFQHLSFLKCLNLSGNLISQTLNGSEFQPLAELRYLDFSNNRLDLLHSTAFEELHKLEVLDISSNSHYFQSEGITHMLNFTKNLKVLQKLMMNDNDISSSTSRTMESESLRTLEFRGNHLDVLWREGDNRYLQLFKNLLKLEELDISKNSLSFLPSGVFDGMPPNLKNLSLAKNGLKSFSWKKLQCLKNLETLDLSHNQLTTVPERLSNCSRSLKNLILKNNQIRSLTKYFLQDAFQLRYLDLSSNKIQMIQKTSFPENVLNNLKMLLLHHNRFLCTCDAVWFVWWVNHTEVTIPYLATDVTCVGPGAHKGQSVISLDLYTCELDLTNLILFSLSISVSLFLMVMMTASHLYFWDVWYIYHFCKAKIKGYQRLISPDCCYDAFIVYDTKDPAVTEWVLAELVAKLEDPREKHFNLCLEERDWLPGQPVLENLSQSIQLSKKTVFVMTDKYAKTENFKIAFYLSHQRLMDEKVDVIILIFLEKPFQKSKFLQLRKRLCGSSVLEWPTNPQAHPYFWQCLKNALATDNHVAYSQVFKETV
Description: as §1

[3] = SEC analysis of ADC aggregation (high molecular weight species) in plasma; format: physicochemical; conditions: ADC incubated with human or mouse plasma, FIG. 9
Description: Method I: Size-exclusion chromatography (SEC) was performed with a Waters ACQUITY UPLC system and an Acquity UPLC Protein BEH SEC Column, (200 Å, 1.7 μm, 4.6×150 mm, PN: 186005225). The mobile phase used was 7.5% isopropanol in 92.5% aqueous (25 mM sodium phosphate, 350 mM NaCl, pH 6.8), v/v. Elution was performed isocratically at a flow rate of 0.4 mL/min at ambient temperature.
To determine if any of these differences in activity potentially resulted from increases in aggregation as a subsequent result of changes in charge, SEC analysis was performed. ADCs containing either S18a (methyl ester) or S18b (carboxylic acid) were incubated with both human or mouse plasma and assessed for the formation of high molecular weight species (HMW) over time.

[4] = test system: primary human PBMCs; experiment: Cytokine induction in primary human PBMCs by small molecule TLR7/8 agonists (Luminex); format: cell-based; conditions: free drug
Description: This example covers dose dependent human immune cell activation by small molecule TLR7/8 agonists. Primary human PBMCs were isolated from peripheral whole blood from human donors and were subjected to treatment with increasing concentrations of the agonists diluted in PBS. Cell culture supernatants were harvested 24 h after treatment and analyzed for induction of cytokines via multiplex ELISAs (Luminex).
Several small molecule TLR7/8 agonists were assessed for their ability to activate human immune cells in a dose dependent manner. Primary human PBMCs were isolated from peripheral whole blood from human donors and were subjected to treatment with increasing concentrations of the agonists diluted in PBS. 24 h after treatment cell culture supernatants were harvested and analyzed for induction of cytokines via multiplex ELISAs (Luminex).

[5] = test system: Renca tumors; experiment: Renca kidney carcinoma model in Balb/c mice; format: in vivo, mouse; conditions: ADC, q7dx3 from ~100 mm^3, FIG. 14
Description: The difference in anti-tumor activity of the S18a and S18b conjugates was also assessed in the Renca kidney model. In this model, mice bearing Renca tumors were treated q7dx3 when tumors reached ˜100 mm^3 as indicated, and followed for mean group tumor growth (FIG. 14, top) and survival (FIG. 14, bottom) over time.
This example covers cancer treatment with EphA2 targeted TLR agonists. […] Balb/c mice were implanted with Renca tumor cells and when cells reached 100 mm^3 they were treated Q7dx3 treatments with 2.4 mg/kg of the indicated IDC, either non targeting isotype or an EphA2 targeting mAb.

Row | pEC50 [1] | pEC50 [2] | TLR7/TLR8 [2] | Structure (SMILES) | aggregation (formation of high molecular weight species over time) [3] | IL12p40 and IL1β responses ([4]; FIG. 5) | potency and activity of cytokine induction (IL6, TNFα, MCP1, IP10) ([4]; ranking, FIG. 30) | tumor growth and survival [5]
1 | 5.05 | 5.60 | 0.28 | CCCCc1nc2c(N)nc3cc(C(=O)OC)ccc3c2n1CCCCCN [S14a] | – | – | – | –
2 | 4.99 | 6.36 | 0.04 | CCCCc1nc2c(N)nc3cc(C(=O)OC)ccc3c2n1Cc1ccc(CN(C)C)cc1 [S18a] | no significant difference in the amounts of aggregation | lower responses of both cytokines | other two most potent compounds | some tumor growth benefit though no real survival benefit
